The term EC50 denotes the concentration needed to bring the measured effect to its halfway point. Lower therefore signals greater potency.

Counter-ions that a name gives are not always drawn.

Here are results for 29 molecules from patent US8202865B2, “Oxadiazole derivatives” (Merck Serono SA, priority 2007, dated 2012).

T1 sequence (P21453 whole entry, species assumed): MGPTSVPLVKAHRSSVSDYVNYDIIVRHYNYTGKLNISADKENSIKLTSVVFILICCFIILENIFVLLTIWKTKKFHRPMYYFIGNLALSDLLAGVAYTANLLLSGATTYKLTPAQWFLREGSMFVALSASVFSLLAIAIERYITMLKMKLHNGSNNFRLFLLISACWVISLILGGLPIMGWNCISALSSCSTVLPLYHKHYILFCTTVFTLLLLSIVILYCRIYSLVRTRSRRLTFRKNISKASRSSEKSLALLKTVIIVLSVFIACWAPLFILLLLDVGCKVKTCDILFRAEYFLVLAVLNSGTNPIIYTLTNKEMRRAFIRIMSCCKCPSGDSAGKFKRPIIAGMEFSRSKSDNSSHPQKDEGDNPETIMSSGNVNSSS

The experiment addresses T1, S1P1 (Homo sapiens, UniProt P21453).
T1 construct: expressed in transfected cells; host or cells: CHO cells (membranes)
The experiment is described as follows: 35S-GTPγS binding, S1P1 membranes. It counts as biochemical. The note with it: membranes from CHO cells expressing S1P1; 60 min 30° C. How it is done: Receptor binding assay: Membranes were prepared from CHO cells expressing S1P1 or S1P3 for use in ligand and […] binding studies. Cells were suspended in 50 mM TRIS, pH 7.4, 2 mM EDTA, 250 mM Sucrose (buffer A) and 1× Complete protease inhibitor cocktail (Roche), and disrupted at 4° C. by N2 decompression using a cell disruption bomb (Parr Instrument). Following centrifugation at 1000 RPM for 10 min at 4° C., the supernatant was suspended in buffer A and centrifuged again at 19000 RPM for 60 min at 4° C. The pellet was then suspended in 10 mM HEPES, pH 7.4, 1 mM EDTA, 250 mM Sucrose (Buffer B), and 1× Complete EDTA-free protease inhibitor cocktail and homogenized using a potter. Membranes were flash frozen in liquid N2 and stored at −80° C. [33P]sphingosine 1-phosphate (3000 Ci/mmol; American Radiolabeled Chemicals, Inc.) was added to test compounds in DMSO. Membranes and WGA SPA beads (GE Healthcare) were added to give a final volume of 100 μl in 96-well plates with assay concentrations of 25 pM or 10 pM [33P]sphingosine 1-phosphate (respectively for S1P1 or S1P3), 50 mM HEPES, pH 7.5, 5 mM MgCl2, 100 mM NaCl, 0.4% fatty acid-free BSA, 1-5 μg/well of proteins and 100 μg/well of WGA SPA beads. Binding was performed for 60 min at RT on a shaker and bound radioactivity was measured on a PerkinElmer 1450 MicroBeta counter. Specific binding was calculated by subtracting remaining radioactivity in the presence of 1000-fold excess of unlabeled S1P. Binding data were analyzed using the GraphPad Prism program.
Measurements of ^35S-GTPγS Binding: Membranes (1 to 10 μg protein) prepared as described above, were incubated in 96-well Scintiplates (PerkinElmer) with test compounds diluted in DMSO, in 180 μl of 20 mM HEPES, pH 7.4, 10 mM MgCl2, 2 μg/well Saponin, 0.2% fatty acid free BSA (Assay buffer), 140 mM NaCl and 1.7 μM GDP. The assay was initiated with the addition of 20 μl of 1.5 nM [35S]-GTPγS (1100 Ci/mmol; GE Healthcare) in assay buffer. After 60 min incubation at 30° C. on a shaker, plates were centrifuged for 10 min at 2000 RPM. Supernatant was discarded and membrane bound radioactivity was measured on a PerkinElmer 1450 MicroBeta counter. Triplicate samples were averaged and expressed as % response relative to S1P activation in absence of compound (n=2).
A general note: GTPγS resists hydrolysis and so accumulates on activated G proteins.
`COc1cc(-c2nc(-c3ccc(S(N)(=O)=O)cc3)no2)ccc1-c1cscc1C` [Example 39, 4-{5-[3-methoxy-4-(4-methyl-3-thienyl)phenyl]-1,2,4-oxadiazol-3-yl}benzenesulfonamide]: the EC50 came out at 2.9 nM. Next, `Cc1ccccc1-c1ccc(-c2nc(-c3ccc(S(N)(=O)=O)cc3)no2)cc1C` [Example 40, 4-[5-(2,2′-dimethylbiphenyl-4-yl)-1,2,4-oxadiazol-3-yl]benzenesulfonamide]: 10 nM; `COCC1CCCN1c1ncc(-c2nc(-c3ccc(S(N)(=O)=O)cc3)no2)cc1C` (centres unmarked) [Example 41, 4-(5-{6-[2-(methoxymethyl)pyrrolidin-1-yl]-5-methylpyridin-3-yl}-1,2,4-oxadiazol-3-yl)benzenesulfonamide]: 1090 nM; `Cc1ccccc1-c1ccc(-c2nc(-c3ccc(C(=O)O)cc3)no2)cc1C` [Example 42, 4-[5-(2,2′-dimethylbiphenyl-4-yl)-1,2,4-oxadiazol-3-yl]benzoic acid]: 1690 nM. `Cc1ccccc1-c1ccc(-c2nc(-c3ccc(O)c(C(=O)O)c3)no2)cc1C` [Example 43, 5-[5-(2,2′-dimethylbiphenyl-4-yl)-1,2,4-oxadiazol-3-yl]-2-hydroxybenzoic acid] returned an EC50 of 4360 nM. Next, `Cc1cc(-c2nc(-c3ccc(O)c(C(=O)O)c3)no2)ccc1-c1cscc1C` [Example 44, 2-hydroxy-5-{5-[3-methyl-4-(4-methyl-3-thienyl)phenyl]-1,2,4-oxadiazol-3-yl}benzoic acid]: 1450 nM; `COc1cc(C(=O)O)ccc1-c1noc(-c2ccc(-c3ccccc3C)c(C)c2)n1` [Example 45, 4-[5-(2,2′-dimethylbiphenyl-4-yl)-1,2,4-oxadiazol-3-yl]-3-methoxybenzoic acid]: 4480 nM; `COc1cc(-c2noc(-c3ccc(-c4ccccc4C)c(C)c3)n2)ccc1C(=O)O` [Example 46, 4-[5-(2,2′-dimethylbiphenyl-4-yl)-1,2,4-oxadiazol-3-yl]-2-methoxybenzoic acid]: 2270 nM. With `CC(C)COc1ncc(-c2nc(-c3ccc(OCC(=O)O)c(F)c3)no2)cc1Cl` [Example 49, {4-[5-(5-chloro-6-isobutoxypyridin-3-yl)-1,2,4-oxadiazol-3-yl]-2-fluorophenoxy}acetic acid], a half-maximal effect (EC50) was put at 1280 nM. `C#CCOc1ncc(-c2nc(-c3ccc(OCC(=O)O)c(F)c3)no2)cc1Cl` [Example 51, (4-{5-[5-chloro-6-(prop-2-yn-1-yloxy)pyridin-3-yl]-1,2,4-oxadiazol-3-yl}-2-fluorophenoxy)acetic acid] displayed an EC50 of 2020 nM. Next, `O=C(O)COc1ccc(-c2noc(-c3cnc(OCC4CC4)c(Cl)c3)n2)cc1F` [Example 52, (4-{5-[5-chloro-6-(cyclopropylmethoxy)pyridin-3-yl]-1,2,4-oxadiazol-3-yl}-2-fluorophenoxy)acetic acid]: 1540 nM; `Cc1ccccc1-c1ccc(-c2nc(-c3ccc(C(=O)O)c(F)c3)no2)cc1CO` [Example 58, 2-fluoro-4-{5-[2-(hydroxymethyl)-2′-methylbiphenyl-4-yl]-1,2,4-oxadiazol-3-yl}benzoic acid]: 2930 nM; `Cc1ccccc1-c1ccc(-c2nc(-c3ccc(C(=O)O)c(F)c3)no2)cc1COCC(C)C` [Example 60, 2-fluoro-4-{5-[2-(isobutoxymethyl)-2′-methylbiphenyl-4-yl]-1,2,4-oxadiazol-3-yl}benzoic acid]: 3700 nM. Next, `Cc1ccccc1-c1ccc(-c2nc(-c3ccc(C(=O)O)c(F)c3)no2)cc1COCC1CC1` [Example 61, 4-(5-{2-[(cyclopropylmethoxy)methyl]-2′-methylbiphenyl-4-yl}-1,2,4-oxadiazol-3-yl)-2-fluorobenzoic acid]: 2240 nM; `CC(C)COc1ccc(-c2nc(-c3ccc(C(=O)O)c(F)c3)no2)cc1NS(C)(=O)=O` [Example 64, 2-fluoro-4-(5-{4-isobutoxy-3-[(methylsulfonyl)amino]phenyl}-1,2,4-oxadiazol-3-yl)benzoic acid]: 4720 nM. Molecule `CC(=O)Nc1cc(-c2nc(-c3ccc(C(=O)O)c(F)c3)no2)ccc1N1CCCCC1C` (centres unmarked) [Example 65, 4-{5-[3-(acetylamino)-4-(2-methylpiperidin-1-yl)phenyl]-1,2,4-oxadiazol-3-yl}-2-fluorobenzoic acid] displayed an EC50 of 10400 nM. In turn, `CCCN(CC(C)C)c1ccc(-c2nc(-c3ccc(C(=O)O)c(F)c3)no2)cc1NS(C)(=O)=O` [Example 66, 2-fluoro-4-(5-{4-[isobutyl(propyl)amino]-3-[(methylsulfonyl)amino]phenyl}-1,2,4-oxadiazol-3-yl)benzoic acid] showed an EC50 of 10000 nM. The molecule `COC(=O)c1ccc(-c2noc(-c3ccc(N(C)C)c(NS(C)(=O)=O)c3)n2)cc1F` [Example 71, methyl 4-(5-{4-(dimethylamino)-3-[(methylsulfonyl)amino]phenyl}-1,2,4-oxadiazol-3-yl)-2-fluorobenzoate] had an EC50 of 481 nM.

In turn, `CCC(=O)Nc1cc(-c2nc(-c3ccc(C(=O)O)c(F)c3)no2)ccc1N1CCCCC1C` (centres unmarked) [Example 72, 2-fluoro-4-{5-[4-(2-methylpiperidin-1-yl)-3-(propionylamino)phenyl]-1,2,4-oxadiazol-3-yl}benzoic acid] gave an EC50 of 8510 nM.

`Cc1ccccc1-c1ccc(-c2nc(-c3ccc(C(=O)O)c(F)c3)no2)cc1CN1CCCC1` [Example 76, 2-fluoro-4-{5-[2′-methyl-2-(pyrrolidin-1-ylmethyl)biphenyl-4-yl]-1,2,4-oxadiazol-3-yl}benzoic acid, Hydrochloride salt] displayed an EC50 of 772 nM.

With `CNCc1cc(-c2nc(-c3ccc(C(=O)O)c(F)c3)no2)ccc1-c1ccccc1C` [Example 77, 2-fluoro-4-(5-{2′-methyl-2-[(methylamino)methyl]biphenyl-4-yl}-1,2,4-oxadiazol-3-yl)benzoic acid, Hydrochloride salt], the EC50 turned out to be 2900 nM. In turn, `CCc1ccccc1-c1ccc(-c2nc(-c3ccc(C(=O)OC)c(F)c3)no2)cc1COC` [Example 80, methyl 4-{5-[2′-ethyl-2-(methoxymethyl)biphenyl-4-yl]-1,2,4-oxadiazol-3-yl}-2-fluorobenzoate] showed an EC50 of 274 nM. The result for `COCc1cc(-c2nc(-c3ccc(C(=O)O)c(F)c3)no2)ccc1-c1cccc(OC)c1OC` [Example 82, 4-{5-[2′,3′-dimethoxy-2-(methoxymethyl)biphenyl-4-yl]-1,2,4-oxadiazol-3-yl}-2-fluorobenzoic acid] reads 1580 nM.

In turn, `Cc1ccccc1-c1ccc(-c2nc(-c3ccc(C(=O)O)c(F)c3)no2)cc1S(C)(=O)=O` [Example 83, 2-fluoro-4-{5-[2′-methyl-2-(methylsulfonyl)biphenyl-4-yl]-1,2,4-oxadiazol-3-yl}benzoic acid] registered an EC50 of 3990 nM. The result for `COCc1ccccc1-c1ccc(-c2nc(-c3ccc(C(=O)O)c(F)c3)no2)cc1C` [Example 87, 2-fluoro-4-{5-[2′-(methoxymethyl)-2-methylbiphenyl-4-yl]-1,2,4-oxadiazol-3-yl}benzoic acid] reads 2010 nM.

`Cc1ccccc1-c1ccc(-c2nc(-c3ccc(C(=O)O)c(Cl)c3)no2)cc1CS(C)(=O)=O` [Example 88, 2-chloro-4-(5-{2′-methyl-2-[(methylsulfonyl)methyl]biphenyl-4-yl}-1,2,4-oxadiazol-3-yl)benzoic acid] displayed an EC50 of 4640 nM. The result for `COCc1cc(-c2nc(-c3ccc(C(=O)O)c(F)c3)no2)ccc1-c1cc(F)ccc1OC` [Example 89, 2-fluoro-4-{5-[5′-fluoro-2′-methoxy-2-(methoxymethyl)biphenyl-4-yl]-1,2,4-oxadiazol-3-yl}benzoic acid] reads 460 nM. `CCOc1ccccc1-c1ccc(-c2nc(-c3ccc(C(=O)O)c(F)c3)no2)cc1COC` [Example 90, 4-{5-[2′-ethoxy-2-(methoxymethyl)biphenyl-4-yl]-1,2,4-oxadiazol-3-yl}-2-fluorobenzoic acid] registered an EC50 of 479 nM. The molecule `COCc1cc(-c2nc(-c3ccc(C(=O)O)c(F)c3)no2)ccc1-c1cc(F)ccc1F` [Example 91, 4-{5-[2′,5′-difluoro-2-(methoxymethyl)biphenyl-4-yl]-1,2,4-oxadiazol-3-yl}-2-fluorobenzoic acid] showed an EC50 of 410 nM.
